Assay results as given in ChEMBL document CHEMBL1201862, “PubChem BioAssay data set” (2004).
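Test compounds were applied to cells in 96-well plates for 48 hours at 5 doses. Abbreviation: GI50, concentration required for 50% inhibition of growth.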 Calls of active or inactive are those of the source. Cut-off read from the data, not from the text of the source: active = GI50 up to about 1.1 µM and inactive = higher.

Assays:
Assay in all cases: growth of human tumour cells (NCI), 48 h
DU-145 = test system: DU-145
MDA-N = test system: MDA-N
DMS-114 = test system: DMS-114
LXFL 529 = test system: LXFL 529
M19-MEL = test system: M19-MEL
KM-20L2 = test system: KM-20L2
DMS-273 = test system: DMS-273
SNB-78 = test system: SNB-78

NCCSCCc1ccccc1
GI50 (DU-145): > 100 µM (inactive) | GI50 (MDA-N): > 100 µM (inactive)

O=[N+]([O-])c1cc(Cc2cc([N+](=O)[O-])c3cccnc3c2O)c(O)c2ncccc12
GI50 (DU-145): 9.89 µM (inactive) | GI50 (MDA-N): 10.6 µM (inactive)

COc1cc(C(=O)c2cocc2C(=O)c2ccc3c(c2)OCO3)cc(OC)c1OC
GI50 (DMS-114): 0.753 µM (active) | GI50 (DU-145): 1.17 µM (inactive) | GI50 (LXFL 529): 0.871 µM (active) | GI50 (MDA-N): 0.0468 µM (active) | GI50 (M19-MEL): 2.96 µM (inactive) | GI50 (KM-20L2): 0.596 µM (active) | GI50 (DMS-273): 0.729 µM (active)

O=[N+]([O-])c1ccc2[nH]c(-c3ccc(Cl)cc3)nc2c1
GI50 (DU-145): 25.2 µM (inactive) | GI50 (MDA-N): 24 µM (inactive)

COC(=O)c1cc2c(n1S(=O)(=O)c1ccc(C)cc1)C(=O)C(=O)c1[nH]cc(C(=O)OCc3ccccc3)c1-2
GI50 (DU-145): 0.138 µM (active) | GI50 (MDA-N): < 0.01 µM (active)

CN(C)CCCNc1ncnc2[nH]cnc12
GI50 (DU-145): > 100 µM (inactive) | GI50 (MDA-N): > 100 µM (inactive)

Sc1ncc2[nH]nnc2n1
GI50 (DU-145): > 100 µM (inactive)

CCCCCCNCCCNc1c2ccccc2nc2cccc([N+](=O)[O-])c12
GI50 (DU-145): 0.00537 µM (active) | GI50 (MDA-N): 0.0118 µM (active)

Cn1c(-c2cccs2)cc(-c2ccccc2)c1-c1cccs1
GI50 (DU-145): > 100 µM (inactive) | GI50 (MDA-N): > 100 µM (inactive)

O=c1[nH]c(=O)n(C2CC(O)C(CO)O2)cc1C#Cc1c(F)c(F)c(F)c(F)c1F (stereo unspecified)
GI50 (DMS-114): > 100 µM (inactive) | GI50 (LXFL 529): > 100 µM (inactive) | GI50 (M19-MEL): > 100 µM (inactive) | GI50 (KM-20L2): > 100 µM (inactive) | GI50 (DMS-273): > 100 µM (inactive)

NNc1nnc(-c2nnc(NN)o2)o1
GI50 (DU-145): > 10 µM (inactive) | GI50 (MDA-N): > 10 µM (inactive)

COc1nc2c(OC)cccc2c(OC)c1C=O
GI50 (DMS-114): > 100 µM (inactive) | GI50 (M19-MEL): > 100 µM (inactive) | GI50 (KM-20L2): > 100 µM (inactive) | GI50 (DMS-273): > 100 µM (inactive)

CCOC(=O)NC(=S)NN(C)C1=NCC(C)(C)S1
GI50 (DU-145): > 100 µM (inactive) | GI50 (MDA-N): > 100 µM (inactive)

CN(C)C=C1C(Cl)=C(C=O)CC(C=O)=C1Cl
GI50 (DMS-114): 11.2 µM (inactive) | GI50 (LXFL 529): 2.03 µM (inactive) | GI50 (M19-MEL): 11.4 µM (inactive) | GI50 (KM-20L2): 19.5 µM (inactive) | GI50 (DMS-273): 11 µM (inactive)

CC1(C)C/C(=N/O)c2c(nc3ccc4ccccc4c3c2-c2ccc(Cl)cc2)C1
GI50 (DU-145): 16.5 µM (inactive) | GI50 (MDA-N): 25.1 µM (inactive)

O=C(O)Cc1ccc2c(c1O)C(=O)c1c(ccc(CC(=O)O)c1O)C2=O
GI50 (DMS-114): > 100 µM (inactive) | GI50 (LXFL 529): > 100 µM (inactive) | GI50 (SNB-78): > 100 µM (inactive) | GI50 (M19-MEL): > 100 µM (inactive) | GI50 (KM-20L2): > 100 µM (inactive) | GI50 (DMS-273): > 100 µM (inactive)

CC(C)=CC(=O)c1[nH]c2ccccc2c1CC(=O)NCCc1c[nH]cn1
GI50 (DU-145): > 100 µM (inactive) | GI50 (MDA-N): > 100 µM (inactive)

Cc1ccccc1C(=O)N1CCc2c([nH]c3ccccc23)C1
GI50 (DU-145): 25.6 µM (inactive) | GI50 (MDA-N): 18.9 µM (inactive)

COC(=O)C12C3C=CC(O3)C1C1C=CC2O1 (stereo unspecified)
GI50 (LXFL 529): > 100 µM (inactive) | GI50 (M19-MEL): > 100 µM (inactive) | GI50 (KM-20L2): > 100 µM (inactive) | GI50 (DMS-273): > 100 µM (inactive)

C[C@H]1[C@H](C)N(Cc2ccccc2)P(=O)(C(O)/C=C/c2ccccc2)N1Cc1ccccc1 (stereo partly specified)
GI50 (MDA-N): 5.55 µM (inactive)

COC(=O)/C(=N/O)C(C(=O)C=C(C)C)C(=O)C(=O)Nc1nc2ccc([N+](=O)[O-])cc2s1 (stereo unspecified)
GI50 (LXFL 529): 25.6 µM (inactive) | GI50 (SNB-78): 27.7 µM (inactive) | GI50 (M19-MEL): > 100 µM (inactive) | GI50 (KM-20L2): 80.2 µM (inactive) | GI50 (DMS-273): 45.4 µM (inactive)

COC(=O)c1ccccc1C1CN=NC12Cc1c(ccc3c1CCC3)C2=O (stereo unspecified)
GI50 (DU-145): > 100 µM (inactive) | GI50 (MDA-N): 20.1 µM (inactive)

CCCCCC/C=C1\CCC(CN(C)C)C1=O (stereo unspecified)
GI50 (DMS-114): 4.24 µM (inactive) | GI50 (DU-145): 20.1 µM (inactive) | GI50 (LXFL 529): 1.99 µM (inactive) | GI50 (MDA-N): 5.47 µM (inactive) | GI50 (M19-MEL): 2.59 µM (inactive) | GI50 (KM-20L2): 8.73 µM (inactive) | GI50 (DMS-273): 4.15 µM (inactive)

CN1C2CCC1CC(CC(=O)NC(c1ccc(F)cc1)c1ccc(F)cc1)C2 (stereo unspecified)
GI50 (DU-145): > 100 µM (inactive) | GI50 (MDA-N): 41.9 µM (inactive)

Cc1c(OCCCOc2ccc3c(=O)cc(-c4ccccc4)oc3c2C)ccc2c(=O)cc(-c3ccccc3)oc12
GI50 (DMS-114): > 100 µM (inactive) | GI50 (LXFL 529): > 100 µM (inactive) | GI50 (SNB-78): 51.2 µM (inactive) | GI50 (M19-MEL): > 100 µM (inactive) | GI50 (KM-20L2): > 100 µM (inactive) | GI50 (DMS-273): > 100 µM (inactive)

COc1ccc(CCCCNCc2cccc(CNCCCCc3ccc(OC)cc3)c2)cc1
GI50 (DU-145): 1.88 µM (inactive) | GI50 (MDA-N): 2 µM (inactive)

O=C(O)CC1NC(/C(=C/c2ccccc2)NC(=O)c2ccccc2)OC1=O (stereo unspecified)
GI50 (DU-145): 52.4 µM (inactive) | GI50 (MDA-N): 30.1 µM (inactive)

CC1OC(OC2C(OC(=O)[C@]34CCC(C)(C)C[C@H]3C3=CC[C@@H]5[C@@]6(C)CC[C@H](OC7OC(C(=O)O)C(O)C(O)C7O)C(C)(C)[C@@H]6CC[C@@]5(C)[C@]3(C)C[C@H]4O)OCC(O)C2O)C(O)C(O)C1OC1OCC(OC2OCC(O)C(O)C2O)C(O)C1O (stereo partly specified)
GI50 (DU-145): 11.3 µM (inactive)

CC(=O)N1C(Nc2ccccc2)CCN1c1ccccc1 (stereo unspecified)
GI50 (DU-145): > 10 µM (inactive)

COc1cc2cc(C(=O)N3CC(CCl)c4ccc([N+](C)(C)Cc5ccccc5[N+](=O)[O-])cc43)[nH]c2c(OC)c1OC (stereo unspecified)
GI50 (DU-145): 1.53 µM (inactive) | GI50 (MDA-N): 2.26 µM (inactive)

COc1ccc2nc3ccc(OC)cc3c([S+]([O-])Cc3ccc([N+](=O)[O-])cc3)c2c1 (stereo unspecified)
GI50 (DU-145): 2.58 µM (inactive) | GI50 (MDA-N): 14.2 µM (inactive)

CC1CCCC(C(O)CC2CC(=O)NC(=O)C2)C1O (stereo unspecified)
GI50 (DU-145): > 100 µM (inactive) | GI50 (MDA-N): > 100 µM (inactive)
